US10981932B2, “Macrocyclic indole derivatives” (Bayer Aktiengesellschaft, priority 2016, dated 2021)
Structures can show the parent of a compound that is named as a salt. Where two headings read alike, the source gives them in different places.

Legend:
[1] = target: MCL-1 (Homo sapiens, UniProt Q07820); assay: Protein-protein interaction assay MCL-1/Noxa BH3 peptide (MCL-1 assay), TR-FRET; type: binding; settings: MBP-MCL-1 / Noxa BH3-derived peptide, median
In short: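 Steady-state competition, MCL-1/Noxa BH3, TR-FRET readout; 1 nM MBP-MCL-1, 11-point dose series 0.1 nM–20 μM; overnight 4 °C equilibration; 4-parameter IC50.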

[2] = tested on: SUDHL5; assay: Anti-proliferative effect (CellTiter-Glo, 72 h), SUDHL5; type: cell-based; settings: SUDHL5 cells, antiproliferation, 72 h incubation, median, read-out: Antiproli SUDHL5 [M] (median)
In short: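 Endpoint: CellTiter-Glo luminescence, 10 min after reagent addition. Treatment ran 72 h at 37 °C, humidified. Growth was referenced to a separately plated day 0 plate.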

Sequence of MCL-1 (Q07820 whole entry): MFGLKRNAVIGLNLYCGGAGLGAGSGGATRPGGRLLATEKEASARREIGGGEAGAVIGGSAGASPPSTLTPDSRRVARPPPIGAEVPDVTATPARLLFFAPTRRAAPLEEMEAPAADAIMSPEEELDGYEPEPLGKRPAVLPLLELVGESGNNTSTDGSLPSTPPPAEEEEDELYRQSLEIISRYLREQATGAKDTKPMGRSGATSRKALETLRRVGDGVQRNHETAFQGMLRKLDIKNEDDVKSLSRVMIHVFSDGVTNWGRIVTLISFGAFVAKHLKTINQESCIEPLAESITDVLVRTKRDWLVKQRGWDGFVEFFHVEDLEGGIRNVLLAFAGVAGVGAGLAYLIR

Row | Structure (SMILES) | IC50 [1] | IC50 ([2]; Homo sapiens, SU-DHL-5, 72 h) | IC50 [2]
1 | Cc1c2c(nn1C)COCCCCn1c(C(=O)O)c(CCCOc3cccc4ccccc34)c3cccc-2c31 (racemic) [Example 1-36, (rac)-2,3-dimethyl-7-[3-(naphthalen-1-yloxy)propyl]-2,10,11,12,13,15-hexahydropyrazolo[4′,3′:9,10][1,6]oxazacycloundecino[8,7,6-hi]indole-8-carboxylic Acid] | 0.00328 µM | 2.63e-06 M | 
2 | Cc1nn(C)c2c1-c1cccc3c(CCCOc4cccc5ccccc45)c(C(=O)O)n(c13)CCCCOCC2 (racemic) [Example 017, (rac)-1,3-dimethyl-7-[3-(1-naphthyloxy)propyl]-10,11,12,13,15,16-hexahydro-1H-pyrazolo[4′,3′:9,10][1,6]oxazacyclododecino[8,7,6-hi]indole-8-carboxylic Acid] | 0.00896 µM | 6.09e-06 M | 
3 | Cc1ccc2c(CCCOc3cccc4c3CCCC4)c(C(=O)O)n3c2c1-c1c(C)nn(C)c1COCCCC3 (racemic) [Example 039, (rac)-1,3,4-trimethyl-7-[3-(5,6,7,8-tetrahydronaphthalen-1-yloxy)propyl]-110,11,12,13,15-hexahydropyrazolo[4′3′:9,10][1,6]oxazacycloundecino[8,7,6-hi]indole-8-carboxylic Acid] | 0.00501 µM | 1.11e-05 M | 
4 | CC(C)c1c2c(nn1C)CN(C)CCCn1c(C(=O)O)c(CCCOc3cccc4ccccc34)c3cccc-2c31 (racemic) [Example 113, (rac)-7,10-dimethyl-1-[3-(naphthalen-1-yloxy)propyl]-11-(propan-2-yl)-4,5,6,7,8,10-hexahydropyrazolo[3′,4′:7,8][1,5]diazecino[9,10,1-hi]indole-2-carboxylic Acid] | 0.0197 µM |  | 
5 | CCc1c2c(nn1C)CN(C)CCCn1c(C(=O)O)c(CCCOc3cccc4ccccc34)c3cccc-2c31 (racemic) [Example 141, (rac)-11-ethyl-7,10-dimethyl-1-[3-(1-naphthyloxy)propyl]-4,5,6,7,8,10-hexahydropyrazolo[3′,4′:7,8][1,5]diazecino[9,10,1-hi]indole-2-carboxylic Acid] | 0.00727 µM | 1.39e-06 M | 
6 | CCc1c2c(nn1C)CN(C)CCCn1c(C(=O)O)c(CCCOc3cccc4ccccc34)c3ccc(C)c-2c31 (racemic) [Example 144, (rac)-11-ethyl-7,10,12-trimethyl-1-[3-(1-naphthyloxy)propyl]-4,5,6,7,8,10-hexahydropyrazolo[3′,4′:7,8][1,5]diazecino[9,10,1-hi]indole-2-carboxylic Acid] | 0.00334 µM | 1.33e-06 M | 
7 | CCc1c2c(nn1C)COCCCCn1c(C(=O)O)c(CCCOc3cccc4ccccc34)c3ccc(C)c-2c31 (racemic) [Example 153, (rac)-3-Ethyl-2,4-dimethyl-7-[3-(1-naphthyloxy)propyl]-2,10,11,12,13,15-hexahydropyrazolo[4′,3′:9,10][1,6]oxazacycloundecino[8,7,6-hi]indole-8-carboxylic Acid] | 0.0048 µM | 7.96e-07 M | 
8 | CC(C)OCc1nn(C)c2c1-c1cccc3c(CCCOc4cccc5ccccc45)c(C(=O)O)n(c13)CCCCN(C)C2 (single isomer, unassigned) [Example 1-74, 1,14-dimethyl-7-[3-(naphthalen-1-yloxy)propyl]-3-[(propan-2-yloxy)methyl]-10,11,12,13,14,15-hexahydro-1H-pyrazolo[3′,4′:8,9][1,6]diazacycloundecino[10,11,1-hi]indole-8-carboxylic Acid] | 0.00479 µM | 9.62e-06 M | 
9 | CN1CCCn2c(C(=O)O)c(CCCOc3cccc4ccccc34)c3cccc(c32)-c2c(COc3ccc(N4CCN(S(=O)(=O)N(C)C)CC4)cc3)nn(C)c2C1 (single isomer, unassigned; enantiomer 1) [Example 1-15, (+)-11-({4-[4-(dimethylsulfamoyl)piperazin-1-yl]phenoxy}methyl)-7,9-dimethyl-1-[3-(naphthalen-1-yloxy)propyl]-4,5,6,7,8,9-hexahydropyrazolo[3′,4′:7,8][1,5]diazecino[9,10,1-hi]indole-2-carboxylic Acid (Enantiomer 1)] | 0.00303 µM |  | 1.36e-06 M
10 | Cn1nc(COc2ccc(N3CCN(C(=O)C4CC4)CC3)cc2)c2c1COCCCCn1c(C(=O)O)c(CCCOc3cccc4ccccc34)c3cccc-2c31 (single isomer, unassigned; enantiomer 1) [Example 1-22, 3-({4-[4-(cyclopropylcarbonyl)piperazin-1-yl]phenoxy}methyl)-1-methyl-7-[3-(naphthalen-1-yloxy)propyl]-1,10,11,12,13,15-hexahydropyrazolo[4′,3′:9,10][1,6]oxazacycloundecino[8,7,6-hi]indole-8-carboxylic Acid (Enantiomer 1)] | 0.000787 µM |  | 1.58e-06 M
11 | Cc1nn(C)c2c1-c1cccc3c(CCCOc4cccc5ccccc45)c(C(=O)O)n(c13)CCCN(C)C2 (single isomer, unassigned; enantiomer 1) [Example 1-31, 7,9,11-trimethyl-1-[3-(naphthalen-1-yloxy)propyl]-4,5,6,7,8,9-hexahydropyrazolo[3′,4′:7,8][1,5]diazecino[9,10,1-hi]indole-2-carboxylic Acid-N-ethylethanamine Salt (Enantiomer 1)] | 0.00462 µM |  | 3.12e-06 M
12 | Cc1c2c(nn1C)COCCCCn1c(C(=O)O)c(CCCOc3cccc4ccccc34)c3cccc-2c31 (single isomer, unassigned; enantiomer 1) [Example 1-37, (+)-2,3-dimethyl-7-[3-(naphthalen-1-yloxy)propyl]-2,10,11,12,13,15-hexahydropyrazolo[4′,3′:9,10][1,6]oxazacycloundecino[8,7,6-hi]indole-8-carboxylic Acid (Enantiomer 1)] | 0.00172 µM |  | 2.54e-06 M
13 | CN1CCCn2c(C(=O)O)c(CCCOc3cccc4ccccc34)c3cccc(c32)-c2c(CN3CCOCC3)nn(C)c2C1 (single isomer, unassigned; enantiomer 1) [Example 1-43, (+)-7,9-dimethyl-11-(morpholin-4-ylmethyl)-1-[3-(naphthalen-1-yloxy)propyl]-4,5,6,7,8,9-hexahydropyrazolo[3′,4′:7,8][1,5]diazecino[9,10,1-hi]indole-2-carboxylic Acid (Enantiomer 1)] | 0.00799 µM | 9.58e-06 M | 
14 | CN1CCCn2c(C(=O)O)c(CCCOc3cccc4ccccc34)c3cccc(c32)-c2c(COc3ccc(N4CCN(S(C)(=O)=O)CC4)cc3)nn(C)c2C1 (single isomer, unassigned; enantiomer 1) [Example 1-46, (+)-7,9-dimethyl-11-({4-[4-(methylsulfonyl)piperazin-1-yl]phenoxy}methyl)-1-[3-(naphthalen-1-yloxy)propyl]-4,5,6,7,8,9-hexahydropyrazolo[3′,4′:7,8][1,5]diazecino[9,10,1-hi]indole-2-carboxylic Acid (Enantiomer 1)] | 0.00143 µM |  | 9.89e-07 M
15 | Cc1nn(C)c2c1-c1cccc3c(CCCOc4cccc5cc(F)ccc45)c(C(=O)O)n(c13)CCCCOC2 (single isomer, unassigned; enantiomer 1) [Example 019, 7-{3-[(6-fluoronaphthalen-1-yl)oxy]propyl}-1,3-dimethyl-1,10,11,12,13,15-hexahydropyrazolo[4′,3′:9,10][1,6]oxazacycloundecino[8,7,6-hi]indole-8-carboxylic Acid-N-ethylethanamine Salt (Enantiomer 1)] | 0.000862 µM |  | 3.65e-06 M
16 | Cc1nn(C)c2c1-c1cccc3c(CCCOc4cccc5cc(Cl)ccc45)c(C(=O)O)n(c13)CCCCOC2 (single isomer, unassigned; enantiomer 1) [Example 041, 7-{3-[(6-chloronaphthalen-1-yl)oxy]propyl}-1,3-dimethyl-1,10,11,12,13,15-hexahydropyrazolo[4′,3′:9,10][1,6]oxazacycloundecino[8,7,6-hi]indole-8-carboxylic acid-N-ethylethanamine Salt (Enantiomer 1)] | 0.00444 µM | 9.88e-06 M | 
17 | Cc1nn(C)c2c1-c1cccc3c(CCCOc4cccc5cc(F)ccc45)c(C(=O)O)n(c13)CCCOC2 (single isomer, unassigned; enantiomer 1) [Example 047, 1-{3-[(6-fluoronaphthalen-1-yl)oxy]propyl}-9,11-dimethyl-5,6,8,9-tetrahydro-4H-pyrazolo[4′,3′:8,9][1,5]oxazecino[7,6,5-hi]indole-2-carboxylic acid-N-ethylethanamine Salt (Enantiomer 1)] | 0.00286 µM |  | 4.41e-06 M
18 | COCCn1nc2c(c1CN1CCOCC1)-c1cccc3c(CCCOc4cccc5ccccc45)c(C(=O)O)n(c13)CCCN(C)C2 (single isomer, unassigned; enantiomer 1) [Example 057, 10-(2-methoxyethyl)-7-methyl-11-(morpholin-4-ylmethyl)-1-[3-(naphthalen-1-yloxy)propyl]-4,5,6,7,8,10-hexahydropyrazolo[3′,4′:7,8][1,5]diazecino[9,10,1-hi]indole-2-carboxylic Acid (Enantiomer 1)] | 0.0453 µM | 1.04e-05 M | 
19 | Cc1c2c(nn1CCN1CCOCC1)CN(C)CCCn1c(C(=O)O)c(CCCOc3cccc4ccccc34)c3cccc-2c31 (single isomer, unassigned; enantiomer 1) [Example 060, 7,11-dimethyl-10-[2-(morpholin-4-yl)ethyl]-1-[3-(naphthalen-1-yloxy)propyl]-4,5,6,7,8,10-hexahydropyrazolo[3′,4′:7,8][1,5]diazecino[9,10,1-hi]indole-2-carboxylic Acid (Enantiomer 1)] | 0.00544 µM |  | 1.79e-06 M
